Among the data in ChEMBL document CHEMBL4828703, “Structure-activity relationship study of THZ531 derivatives enables the discovery of BSJ-01-175 as a dual CDK12/13 covalent inhibitor with efficacy in Ewing sarcoma” (Eur J Med Chem, 2021) are IC50, inhibition and t1/2 values, retold here.

One data set deals with CDK2/Cyclin A2 (Homo sapiens, UniProt P24941). In words: Inhibition of CDK2/Cyclin A (unknown origin). Format: protein-complex assay.
Data set [1] has as its target Cyclin-dependent kinase 13/Cyclin-K (Homo sapiens, UniProt Q14004). The data set can be described thus: Inhibition of human recombinant CDK13/CyclinK assessed as reduction in substrate phosphorylation using His-c-Myc as substrate preincubated with enzyme for 5 mins followed by substrate addition for 15 mins in presence of [gamma 32P-ATP] by radioactive kinase assay. Format: protein-complex assay.

Data set [2] deals with Cyclin-dependent kinase 7/ cyclin H (Homo sapiens, UniProt P50613). The data set can be described thus: Inhibition of CDK7/Cyclin H (unknown origin). Format: protein-complex assay.
Cyclin-dependent kinase 7/ cyclin H, sequence (P51946 whole entry): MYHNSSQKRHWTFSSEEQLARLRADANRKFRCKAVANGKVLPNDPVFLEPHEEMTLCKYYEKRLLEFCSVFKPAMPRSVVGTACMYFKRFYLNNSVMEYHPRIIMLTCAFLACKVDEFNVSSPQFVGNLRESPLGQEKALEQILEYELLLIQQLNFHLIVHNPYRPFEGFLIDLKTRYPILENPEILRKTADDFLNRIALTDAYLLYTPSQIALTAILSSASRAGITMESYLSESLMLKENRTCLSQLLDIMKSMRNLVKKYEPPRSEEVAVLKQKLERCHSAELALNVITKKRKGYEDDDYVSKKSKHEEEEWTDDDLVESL
Cyclin-dependent kinase 7/ cyclin H, sequence (P50613 whole entry): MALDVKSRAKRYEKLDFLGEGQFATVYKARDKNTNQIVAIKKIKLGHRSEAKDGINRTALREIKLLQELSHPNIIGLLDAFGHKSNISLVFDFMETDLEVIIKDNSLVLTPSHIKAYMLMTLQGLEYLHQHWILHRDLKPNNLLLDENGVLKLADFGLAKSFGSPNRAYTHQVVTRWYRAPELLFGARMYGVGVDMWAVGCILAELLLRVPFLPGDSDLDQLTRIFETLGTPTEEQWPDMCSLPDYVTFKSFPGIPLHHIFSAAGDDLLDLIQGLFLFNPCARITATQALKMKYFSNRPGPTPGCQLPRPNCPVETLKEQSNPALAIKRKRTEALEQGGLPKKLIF
The target in another data set is CDK9/cyclin T1 (Homo sapiens, UniProt P50750). In words: Inhibition of CDK9/Cyclin T1 (unknown origin). Format: protein-complex assay.
CDK9/cyclin T1, sequence (O60563 whole entry): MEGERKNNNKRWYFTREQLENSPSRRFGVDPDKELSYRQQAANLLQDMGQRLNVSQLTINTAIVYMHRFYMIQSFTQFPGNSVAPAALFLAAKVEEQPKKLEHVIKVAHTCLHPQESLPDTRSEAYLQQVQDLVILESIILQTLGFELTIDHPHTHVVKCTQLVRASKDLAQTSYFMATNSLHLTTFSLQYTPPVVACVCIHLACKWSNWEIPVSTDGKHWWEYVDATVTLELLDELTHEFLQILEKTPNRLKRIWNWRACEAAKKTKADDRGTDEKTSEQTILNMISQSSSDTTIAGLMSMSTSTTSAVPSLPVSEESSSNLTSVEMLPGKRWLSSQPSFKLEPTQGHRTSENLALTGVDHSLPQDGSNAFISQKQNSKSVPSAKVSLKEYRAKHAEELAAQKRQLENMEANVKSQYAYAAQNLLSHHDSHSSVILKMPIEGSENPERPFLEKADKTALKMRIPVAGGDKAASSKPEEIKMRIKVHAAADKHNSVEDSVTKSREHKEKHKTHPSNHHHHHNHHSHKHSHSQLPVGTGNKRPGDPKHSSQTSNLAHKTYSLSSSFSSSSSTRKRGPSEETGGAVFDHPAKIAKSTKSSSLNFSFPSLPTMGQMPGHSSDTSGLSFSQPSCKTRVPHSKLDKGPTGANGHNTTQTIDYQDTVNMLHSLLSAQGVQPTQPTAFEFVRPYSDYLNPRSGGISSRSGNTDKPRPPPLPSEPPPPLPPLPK
CDK9/cyclin T1, sequence (P50750 whole entry): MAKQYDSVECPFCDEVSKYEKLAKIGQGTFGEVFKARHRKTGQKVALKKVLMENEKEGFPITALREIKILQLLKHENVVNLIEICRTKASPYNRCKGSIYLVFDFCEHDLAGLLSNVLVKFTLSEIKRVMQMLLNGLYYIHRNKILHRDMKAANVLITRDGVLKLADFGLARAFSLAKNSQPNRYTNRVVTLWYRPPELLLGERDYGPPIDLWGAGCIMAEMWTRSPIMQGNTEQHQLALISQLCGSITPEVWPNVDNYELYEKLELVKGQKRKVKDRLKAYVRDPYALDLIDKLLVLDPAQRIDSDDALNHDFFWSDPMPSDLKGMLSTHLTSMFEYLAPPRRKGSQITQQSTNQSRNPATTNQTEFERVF
The target of a further data set is CDK12/Cyclin K (Homo sapiens, UniProt Q9NYV4). In words: Inhibition of human recombinant CDK12/CyclinK assessed as reduction in substrate phosphorylation using His-c-Myc as substrate preincubated with enzyme for 5 mins followed by substrate addition for 15 mins in presence of [gamma 32P-ATP] by radioactive kinase assay. Format: protein-complex assay.
A short description of data set [3]: Antiproliferative activity against human Kelly cells harboring wild type CDK12 assessed as reduction in cell viability incubated for 72 hrs by CelTiter-Glo assay. Format: functional, cell-based.
The target of data set [4] is Cyclin-dependent kinase 12/13 (Homo sapiens) (UniProt Q14004+Q9NYV4). In words: Inhibition of CDK12/13 in human jurkat cells assessed as reduction in RNA polymerase 2 CTD phosphorylation at Ser2 residue at 1 uM measured after 6 hrs by immunoblotting analysis. It is filed as cell-based. (In western blotting, separated proteins are transferred to a membrane and probed.)

Data set [5] is described as follows: Antiproliferative activity against human TC71 cells assessed as reduction in cell viability. It is filed as functional, cell-based. The settings on record: TC-71.
Data set [6] can be described thus: Downregulation of RNA polymerase 2 CTD phosphorylation at Ser7 residue in human Jurkat cells at 1 uM incubated for 6 hrs by immunoblotting analysis. Format: functional.
Data set [7] is described as follows: Downregulation of RNA polymerase 2 CTD phosphorylation at Ser5 residue in human Jurkat cells at 1 uM incubated for 6 hrs by immunoblotting analysis. It is filed as functional.
The nature of data set [8]: Antiproliferative activity against human Kelly cells harboring CDK12 C1039F mutant assessed as reduction in cell viability incubated for 72 hrs by CellTiter-Glo assay. It is filed as functional, cell-based.
Data set [9] can be described thus: Downregulation of RNA polymerase 2 in human Jurkat cells at 1 uM measured after 6 hrs by immunoblotting analysis. Format: functional.
In data set [10] the target is Cyclin-dependent kinase 7 (Homo sapiens) (UniProt P50613). In words: Inhibition of THZ1-biotin binding from CDK7 in human Jurkat cells at 1 uM incubated for 6 hrs by CyclinH antibody based competitive pull down assay. It is filed as cell-based.
Cyclin-dependent kinase 7 (Homo sapiens), sequence (P50613 whole entry): as the sequence (P50613 whole entry) above
A short description of data set [11]: Metabolic stability in mouse liver microsomes assessed as half life. It is filed as ADME, Microsome. A general note: Microsomes from liver hold many membrane-bound enzymes, among them those of drug oxidation.

pIC50: −log10 of the molar value. Calls of active or inactive are those of the source. No cut-off for these calls is given here. Where only a bound is given, the exact number is not on record here.

Cyclin-dependent kinase 13/Cyclin-K, sequence (Q14004 whole entry): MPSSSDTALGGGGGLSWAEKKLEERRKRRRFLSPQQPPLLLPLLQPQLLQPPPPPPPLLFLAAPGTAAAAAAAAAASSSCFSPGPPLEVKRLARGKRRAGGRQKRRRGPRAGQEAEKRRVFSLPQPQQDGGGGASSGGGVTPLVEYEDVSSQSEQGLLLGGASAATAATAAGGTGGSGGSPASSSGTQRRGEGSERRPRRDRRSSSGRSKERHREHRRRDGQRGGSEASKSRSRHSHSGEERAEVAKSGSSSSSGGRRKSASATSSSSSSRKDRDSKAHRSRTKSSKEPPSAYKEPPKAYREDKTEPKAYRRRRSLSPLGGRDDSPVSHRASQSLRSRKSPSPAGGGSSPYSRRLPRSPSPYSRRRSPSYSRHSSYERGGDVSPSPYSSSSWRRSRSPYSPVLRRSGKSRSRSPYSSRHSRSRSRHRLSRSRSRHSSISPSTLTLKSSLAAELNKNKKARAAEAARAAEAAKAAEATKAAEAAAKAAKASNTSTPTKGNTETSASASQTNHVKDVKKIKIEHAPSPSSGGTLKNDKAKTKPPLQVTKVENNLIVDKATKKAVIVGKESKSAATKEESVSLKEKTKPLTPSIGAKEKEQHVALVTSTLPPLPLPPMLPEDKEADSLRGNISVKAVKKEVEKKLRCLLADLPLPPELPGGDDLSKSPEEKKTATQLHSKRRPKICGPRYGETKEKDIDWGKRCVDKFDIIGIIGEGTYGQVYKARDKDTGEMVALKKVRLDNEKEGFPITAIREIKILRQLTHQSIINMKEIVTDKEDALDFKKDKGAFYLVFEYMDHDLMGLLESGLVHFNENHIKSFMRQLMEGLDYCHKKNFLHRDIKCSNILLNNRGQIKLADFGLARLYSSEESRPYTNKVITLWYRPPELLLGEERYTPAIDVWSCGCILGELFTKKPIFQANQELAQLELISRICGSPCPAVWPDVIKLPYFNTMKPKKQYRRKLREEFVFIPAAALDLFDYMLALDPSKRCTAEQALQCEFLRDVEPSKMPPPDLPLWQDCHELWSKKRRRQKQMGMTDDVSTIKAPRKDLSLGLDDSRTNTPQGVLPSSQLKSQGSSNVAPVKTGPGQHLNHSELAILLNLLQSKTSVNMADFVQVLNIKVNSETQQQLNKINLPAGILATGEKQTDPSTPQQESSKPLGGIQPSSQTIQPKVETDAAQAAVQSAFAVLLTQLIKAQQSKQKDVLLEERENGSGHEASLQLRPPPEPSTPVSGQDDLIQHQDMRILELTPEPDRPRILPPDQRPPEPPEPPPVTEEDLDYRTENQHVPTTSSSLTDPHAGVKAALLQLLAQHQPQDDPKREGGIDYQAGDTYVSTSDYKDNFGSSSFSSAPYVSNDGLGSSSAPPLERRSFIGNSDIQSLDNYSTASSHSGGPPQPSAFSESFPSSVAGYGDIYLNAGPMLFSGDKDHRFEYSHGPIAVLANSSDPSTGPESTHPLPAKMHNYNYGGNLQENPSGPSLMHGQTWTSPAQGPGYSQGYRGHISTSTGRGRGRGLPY
Cyclin-dependent kinase 13/Cyclin-K, sequence (O75909 whole entry, further chain): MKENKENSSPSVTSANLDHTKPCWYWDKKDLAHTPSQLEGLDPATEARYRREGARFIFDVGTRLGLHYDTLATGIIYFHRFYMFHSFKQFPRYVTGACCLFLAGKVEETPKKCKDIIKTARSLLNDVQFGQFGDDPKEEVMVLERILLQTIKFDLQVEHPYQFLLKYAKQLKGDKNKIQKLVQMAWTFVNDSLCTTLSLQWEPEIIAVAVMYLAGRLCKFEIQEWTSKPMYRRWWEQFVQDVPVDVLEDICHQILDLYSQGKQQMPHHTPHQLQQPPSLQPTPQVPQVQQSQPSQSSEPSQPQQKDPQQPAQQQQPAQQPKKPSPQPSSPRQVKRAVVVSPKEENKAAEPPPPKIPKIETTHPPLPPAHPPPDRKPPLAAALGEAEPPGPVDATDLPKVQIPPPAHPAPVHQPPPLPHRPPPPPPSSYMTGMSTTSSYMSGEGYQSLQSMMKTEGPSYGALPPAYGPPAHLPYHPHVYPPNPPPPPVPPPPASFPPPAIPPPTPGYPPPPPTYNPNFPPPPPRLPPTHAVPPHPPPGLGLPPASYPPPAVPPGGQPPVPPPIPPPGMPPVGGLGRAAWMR

In the case of `CN(C)C/C=C/C(=O)Nc1ccc(C(=O)N2CCC[C@@H](Nc3ncc(C(F)(F)F)c(-c4c[nH]c5ccccc45)n3)C2)cc1`, the negative-log IC50 (pIC50) (as a rule, the negative decadic logarithm of the IC50, by convention in mol/L) against CDK2/Cyclin A2 was 5.00; in data set [1] it was 5.00; in [2] it was under 5.00; at CDK9/cyclin T1, under 5.00; at CDK12/Cyclin K, under 5.00.
Consider `CN(C)C/C=C/C(=O)Nc1ccc(N2CCC[C@@H](Nc3ncc(Cl)c(-c4c[nH]c5ccccc45)n3)C2)nc1`, for which the pIC50 in data set [1] is 6.73; on CDK12/Cyclin K it was 7.45.
For `CN(C)C/C=C/C(=O)Nc1ccc(C(=O)N2CCC[C@@H](Nc3ncc(Br)c(-c4c[nH]c5ccccc45)n3)C2)cc1`, the pIC50 at CDK2/Cyclin A2 is 6.00; in data set [1] it was 6.24; in [2] it was 6.94; against CDK9/cyclin T1 it was 6.74; on CDK12/Cyclin K, 6.65.
Regarding `CN(C)C/C=C/C(=O)Nc1ccc(O[C@@H]2CCC[C@@H](Nc3ncc(Cl)c(-c4c[nH]c5ccccc45)n3)C2)c(F)c1`, the negative logarithm of the IC50 (pIC50) in data set [1] was 6.31; at CDK12/Cyclin K it was 6.07.
As to `CN(C)C/C=C/C(=O)Nc1ccc(C(=O)N2CC[C@@H](Nc3ncc(Cl)c(-c4c[nH]c5ccccc45)n3)C2)cc1`, the negative logarithm of the IC50 (pIC50) against CDK2/Cyclin A2 was 7.31; in data set [1] it was 7.30; at CDK9/cyclin T1, 7.85; on CDK12/Cyclin K, 7.16.
`CN(C)C/C=C/C(=O)Nc1ccc(C(=O)N2CCCC[C@@H](Nc3ncc(Cl)c(-c4c[nH]c5ccccc45)n3)C2)cc1`: the pIC50 was 6.47 against CDK2/Cyclin A2; 5.74 in [1]; 6.41 in data set [2]; 5.91 against CDK9/cyclin T1; 5.84 on CDK12/Cyclin K.
On to `CN(C)C/C=C/C(=O)Nc1ccc(C(=O)N2CCC[C@@H](Nc3ncc(Cl)c(-c4c[nH]c5ccccc45)n3)C2)nc1`, for which the negative-log IC50 (pIC50) was 5.79 in [1] and 6.12 on CDK12/Cyclin K.
Consider `CN(C)C/C=C/C(=O)Nc1ccc(C(=O)N2CCC[C@@H](Nc3ncc(Cl)c(-c4c[nH]c5ccccc45)n3)C2)cc1`, for which the pIC50 on CDK2/Cyclin A2 is 5.89; in data set [1], 6.18; in [3], 7.03; on CDK9/cyclin T1 it was 6.71; in [5], 7.18; in data set [8] it was 6.60. Besides, the pIC50 on CDK12/Cyclin K is 6.32. The inhibition – broadly, the drop in the measured response relative to a control, in per cent – in [4] was determined as 76%. Further, the inhibition at 1 µM in data set [6] came out at 42%; in data set [7] it was 0%; in data set [9] it was 0%. The inhibition entry in [10] is “Active”.
Take `CN(C)C/C=C/C(=O)Nc1ccc(C(=O)N2CCC[C@@H](Nc3ncc(C4CC4)c(-c4c[nH]c5ccccc45)n3)C2)cc1`: the pIC50 was under 5.00 against CDK2/Cyclin A2; under 5.00 in [1]; 6.20 in data set [2]; under 5.00 against CDK9/cyclin T1; 5.00 at CDK12/Cyclin K.
For `C=CC(=O)Nc1ccc(C(=O)N2CCC[C@@H](Nc3ncc(Cl)c(-c4c[nH]c5ccccc45)n3)C2)nc1`, in [11], the t1/2 was 3.5 min. Besides, the pIC50 in data set [1] was 6.10; on CDK12/Cyclin K, 6.64.
For the compound `Nc1ccc(OC2CCC[C@@H](Nc3ncc(Cl)c(-c4cn(S(=O)(=O)c5ccccc5)c5ccccc45)n3)C2)cc1` (stereo partly specified), the t1/2 in data set [11] was 5.4 min.
As to `CN(C)C/C=C/C(=O)Nc1ccc(O[C@H]2CCC[C@@H](Nc3ncc(Cl)c(-c4c[nH]c5ccccc45)n3)C2)cc1`, the negative logarithm of the IC50 (pIC50) was 6.19 against CDK2/Cyclin A2; 6.74 in data set [1]; 6.95 in data set [2]; 6.88 against CDK9/cyclin T1; 6.74 on CDK12/Cyclin K.
For the compound `CN(C)C/C=C/C(=O)Nc1ccc(N2CCC[C@@H](Nc3ncc(Cl)c(-c4c[nH]c5ccccc45)n3)C2)cc1`, the pIC50 was 6.21 on CDK2/Cyclin A2; 6.75 in [1]; 7.16 in data set [2]; 6.81 against CDK9/cyclin T1; 6.78 on CDK12/Cyclin K.
